The experiment relates to A549. Description: Cytotoxicity against human A549 cells incubated for 24 hrs by CCK8 assay. The class given is functional, cell-based. The following applies: A549, 24 h.

On to `CCCCC[C@@H]1CCCCCCCCCC(=O)O[C@H]2[C@H](OC[C@H]3O[C@@H](O[C@H]4[C@H](O)[C@@H](CO)O[C@@H](O[C@H]5[C@H](O1)O[C@H](C)[C@@H](O)[C@@H]5O)[C@@H]4O[C@@H]1O[C@@H](C)[C@H](OC(=O)[C@@H](C)CC)[C@@H](O[C@@H]4O[C@H](CO)[C@@H](OC(=O)[C@@H](C)CC)[C@H](O)[C@H]4O)[C@H]1OC(=O)[C@@H](C)CC)[C@H](O)[C@@H](O)[C@@H]3OC(=O)[C@@H](C)[C@H](C)O)O[C@H](CO)[C@@H](OC(=O)[C@@H](C)CC)[C@@H]2O`, for which half-maximal inhibition (IC50) required 5.2 µM.

(Values after ChEMBL document CHEMBL5120870, “Calysepins I-VII, Hexasaccharide Resin Glycosides from Calystegia sepium and Their Cytotoxic Evaluation” (J Nat Prod, 2022).)
